Assay results reported in ChEMBL document CHEMBL4507267 (2021).

Experiments:
[1] = system: Tyrosine-protein kinase ABL1 (Homo sapiens), P00519 [F317I]; conditions: Compound concentration 1000.0 nM
[2] = system: Tyrosine-protein kinase ABL1 (Homo sapiens), P00519 [F317L]; conditions: Compound concentration 1000.0 nM
[3] = system: Tyrosine-protein kinase ABL1 (Homo sapiens), P00519 [Q252H]; conditions: Compound concentration 1000.0 nM
[4] = target: Tyrosine-protein kinase ABL1 (Homo sapiens) (UniProt P00519); conditions: Compound concentration 1000.0 nM
[5] = target: Activin receptor type-1B (Homo sapiens) (UniProt P36896); conditions: Compound concentration 1000.0 nM
[6] = target: Activin receptor type-2A (Homo sapiens) (UniProt P27037); conditions: Compound concentration 1000.0 nM
[7] = target: BMP-2-inducible protein kinase (Homo sapiens) (UniProt Q9NSY1); conditions: Compound concentration 1000.0 nM
[8] = target: Tyrosine-protein kinase Blk (Homo sapiens) (UniProt P51451); conditions: Compound concentration 1000.0 nM
[9] = target: Bone morphogenetic protein receptor type-2 (Homo sapiens) (UniProt Q13873); conditions: Compound concentration 1000.0 nM
[10] = target: Cyclin-dependent kinase 2 (Homo sapiens) (UniProt P24941); conditions: Compound concentration 1000.0 nM
[11] = target: Casein kinase I isoform alpha (Homo sapiens) (UniProt P48729); conditions: Compound concentration 1000.0 nM
[12] = target: Casein kinase I isoform epsilon (Homo sapiens) (UniProt P49674); conditions: Compound concentration 1000.0 nM
[13] = target: Epidermal growth factor receptor (Homo sapiens) (UniProt P00533); conditions: Compound concentration 1000.0 nM
[14] = target: Mitogen-activated protein kinase 6 (Homo sapiens) (UniProt Q16659); conditions: Compound concentration 1000.0 nM
[15] = target: Tyrosine-protein kinase Fer (Homo sapiens) (UniProt P16591); conditions: Compound concentration 1000.0 nM
[16] = system: Receptor-type tyrosine-protein kinase FLT3 (Homo sapiens), P36888 [K663Q]; conditions: Compound concentration 1000.0 nM
[17] = target: Receptor-type tyrosine-protein kinase FLT3 (Homo sapiens) (UniProt P36888); conditions: Compound concentration 1000.0 nM
[18] = system: eIF-2-alpha kinase GCN2 (Homo sapiens), Q9P2K8 [S808G]; conditions: Compound concentration 1000.0 nM
[19] = target: Homeodomain-interacting protein kinase 4 (Homo sapiens) (UniProt Q8NE63); conditions: Compound concentration 1000.0 nM
[20] = target: Interleukin-1 receptor-associated kinase 4 (Homo sapiens) (UniProt Q9NWZ3); conditions: Compound concentration 1000.0 nM
[21] = system: Mast/stem cell growth factor receptor Kit (Homo sapiens), P10721 [L576P]; conditions: Compound concentration 1000.0 nM
[22] = system: Mast/stem cell growth factor receptor Kit (Homo sapiens), P10721 [V559D,T670I]; conditions: Compound concentration 1000.0 nM
[23] = system: Mast/stem cell growth factor receptor Kit (Homo sapiens), P10721 [V559D,V654A]; conditions: Compound concentration 1000.0 nM
[24] = target: Serine/threonine-protein kinase LATS2 (Homo sapiens) (UniProt Q9NRM7); conditions: Compound concentration 1000.0 nM
[25] = target: Tyrosine-protein kinase Lck (Homo sapiens) (UniProt P06239); conditions: Compound concentration 1000.0 nM
[26] = target: Serine/threonine-protein kinase 10 (Homo sapiens) (UniProt O94804); conditions: Compound concentration 1000.0 nM
[27] = target: Mitogen-activated protein kinase kinase kinase 13 (Homo sapiens) (UniProt O43283); conditions: Compound concentration 1000.0 nM
[28] = target: Mitogen-activated protein kinase kinase kinase 1 (Homo sapiens) (UniProt Q13233); conditions: Compound concentration 1000.0 nM
[29] = target: Mitogen-activated protein kinase kinase kinase kinase 4 (Homo sapiens) (UniProt O95819); conditions: Compound concentration 1000.0 nM
[30] = target: Misshapen-like kinase 1 (Homo sapiens) (UniProt Q8N4C8); conditions: Compound concentration 1000.0 nM
[31] = target: Serine/threonine-protein kinase MRCK alpha (Homo sapiens) (UniProt Q5VT25); conditions: Compound concentration 1000.0 nM
[32] = target: Serine/threonine-protein kinase Nek4 (Homo sapiens) (UniProt P51957); conditions: Compound concentration 1000.0 nM
[33] = target: Phosphorylase b kinase gamma catalytic chain, skeletal muscle/heart isoform (Homo sapiens) (UniProt Q16816); conditions: Compound concentration 1000.0 nM
[34] = system: Phosphatidylinositol 4,5-bisphosphate 3-kinase catalytic subunit alpha isoform (Homo sapiens), P42336 [E545K]; conditions: Compound concentration 1000.0 nM
[35] = system: Phosphatidylinositol 4,5-bisphosphate 3-kinase catalytic subunit alpha isoform (Homo sapiens), P42336 [M1043I]; conditions: Compound concentration 1000.0 nM
[36] = system: Phosphatidylinositol 4,5-bisphosphate 3-kinase catalytic subunit alpha isoform (Homo sapiens), P42336 [Q546K]; conditions: Compound concentration 1000.0 nM
[37] = target: Serine/threonine-protein kinase D2 (Homo sapiens) (UniProt Q9BZL6); conditions: Compound concentration 1000.0 nM
[38] = target: Receptor-interacting serine/threonine-protein kinase 1 (Homo sapiens) (UniProt Q13546); conditions: Compound concentration 1000.0 nM
[39] = target: Proto-oncogene tyrosine-protein kinase ROS (Homo sapiens) (UniProt P08922); conditions: Compound concentration 1000.0 nM
[40] = target: STE20-like serine/threonine-protein kinase (Homo sapiens) (UniProt Q9H2G2); conditions: Compound concentration 1000.0 nM
[41] = target: TGF-beta receptor type-2 (Homo sapiens) (UniProt P37173); conditions: Compound concentration 1000.0 nM
[42] = target: Serine/threonine-protein kinase TNNI3K (Homo sapiens) (UniProt Q59H18); conditions: Compound concentration 1000.0 nM
[43] = target: Serine/threonine-protein kinase WNK3 (Homo sapiens) (UniProt Q9BYP7); conditions: Compound concentration 1000.0 nM
[44] = target: 5-hydroxytryptamine receptor 3A (Homo sapiens) (UniProt P46098); conditions: Compound concentration 10.0 uM
[45] = target: D(3) dopamine receptor (Homo sapiens) (UniProt P35462); conditions: Compound concentration 10.0 uM

Sequence of Tyrosine-protein kinase Lck (Homo sapiens) (P06239 2-509 limits assumed): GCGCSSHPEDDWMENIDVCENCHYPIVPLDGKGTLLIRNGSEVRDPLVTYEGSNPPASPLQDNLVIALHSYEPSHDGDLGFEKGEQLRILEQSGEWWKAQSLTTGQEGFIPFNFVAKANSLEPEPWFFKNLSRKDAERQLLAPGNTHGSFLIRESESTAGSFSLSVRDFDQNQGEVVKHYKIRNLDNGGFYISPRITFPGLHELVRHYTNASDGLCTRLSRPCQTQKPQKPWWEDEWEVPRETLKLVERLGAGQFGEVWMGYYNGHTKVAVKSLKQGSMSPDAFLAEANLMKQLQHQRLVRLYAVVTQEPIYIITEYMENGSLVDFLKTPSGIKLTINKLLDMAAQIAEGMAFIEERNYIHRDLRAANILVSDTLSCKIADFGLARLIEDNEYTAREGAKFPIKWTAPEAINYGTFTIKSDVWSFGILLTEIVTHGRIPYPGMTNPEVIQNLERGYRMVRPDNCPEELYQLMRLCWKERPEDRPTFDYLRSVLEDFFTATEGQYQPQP
Sequence of Serine/threonine-protein kinase TNNI3K (Homo sapiens) (Q59H18 whole entry): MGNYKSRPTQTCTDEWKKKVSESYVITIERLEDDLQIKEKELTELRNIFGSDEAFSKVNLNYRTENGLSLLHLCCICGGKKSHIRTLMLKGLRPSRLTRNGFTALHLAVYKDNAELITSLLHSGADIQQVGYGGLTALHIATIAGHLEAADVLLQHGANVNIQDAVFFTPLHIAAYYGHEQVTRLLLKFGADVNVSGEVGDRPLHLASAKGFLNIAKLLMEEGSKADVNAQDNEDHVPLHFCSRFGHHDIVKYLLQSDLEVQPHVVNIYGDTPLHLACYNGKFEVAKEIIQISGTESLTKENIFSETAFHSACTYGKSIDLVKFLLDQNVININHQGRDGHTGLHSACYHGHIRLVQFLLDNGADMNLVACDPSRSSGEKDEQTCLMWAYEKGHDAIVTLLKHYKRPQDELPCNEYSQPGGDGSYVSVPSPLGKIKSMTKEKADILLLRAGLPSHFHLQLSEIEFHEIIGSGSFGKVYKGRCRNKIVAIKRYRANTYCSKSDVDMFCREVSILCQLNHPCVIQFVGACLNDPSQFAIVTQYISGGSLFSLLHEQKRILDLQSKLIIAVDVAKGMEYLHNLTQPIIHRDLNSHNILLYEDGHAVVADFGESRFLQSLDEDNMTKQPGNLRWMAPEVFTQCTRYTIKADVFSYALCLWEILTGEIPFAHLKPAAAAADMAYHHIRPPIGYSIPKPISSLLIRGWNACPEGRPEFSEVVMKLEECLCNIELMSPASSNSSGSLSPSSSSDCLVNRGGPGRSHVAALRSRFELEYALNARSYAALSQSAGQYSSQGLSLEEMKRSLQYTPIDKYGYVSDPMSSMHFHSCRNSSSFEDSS
Sequence of Phosphatidylinositol 4,5-bisphosphate 3-kinase catalytic subunit alpha isoform (Homo sapiens), P42336 [M1043I] (P42336 whole entry M1043I, canonical isoform): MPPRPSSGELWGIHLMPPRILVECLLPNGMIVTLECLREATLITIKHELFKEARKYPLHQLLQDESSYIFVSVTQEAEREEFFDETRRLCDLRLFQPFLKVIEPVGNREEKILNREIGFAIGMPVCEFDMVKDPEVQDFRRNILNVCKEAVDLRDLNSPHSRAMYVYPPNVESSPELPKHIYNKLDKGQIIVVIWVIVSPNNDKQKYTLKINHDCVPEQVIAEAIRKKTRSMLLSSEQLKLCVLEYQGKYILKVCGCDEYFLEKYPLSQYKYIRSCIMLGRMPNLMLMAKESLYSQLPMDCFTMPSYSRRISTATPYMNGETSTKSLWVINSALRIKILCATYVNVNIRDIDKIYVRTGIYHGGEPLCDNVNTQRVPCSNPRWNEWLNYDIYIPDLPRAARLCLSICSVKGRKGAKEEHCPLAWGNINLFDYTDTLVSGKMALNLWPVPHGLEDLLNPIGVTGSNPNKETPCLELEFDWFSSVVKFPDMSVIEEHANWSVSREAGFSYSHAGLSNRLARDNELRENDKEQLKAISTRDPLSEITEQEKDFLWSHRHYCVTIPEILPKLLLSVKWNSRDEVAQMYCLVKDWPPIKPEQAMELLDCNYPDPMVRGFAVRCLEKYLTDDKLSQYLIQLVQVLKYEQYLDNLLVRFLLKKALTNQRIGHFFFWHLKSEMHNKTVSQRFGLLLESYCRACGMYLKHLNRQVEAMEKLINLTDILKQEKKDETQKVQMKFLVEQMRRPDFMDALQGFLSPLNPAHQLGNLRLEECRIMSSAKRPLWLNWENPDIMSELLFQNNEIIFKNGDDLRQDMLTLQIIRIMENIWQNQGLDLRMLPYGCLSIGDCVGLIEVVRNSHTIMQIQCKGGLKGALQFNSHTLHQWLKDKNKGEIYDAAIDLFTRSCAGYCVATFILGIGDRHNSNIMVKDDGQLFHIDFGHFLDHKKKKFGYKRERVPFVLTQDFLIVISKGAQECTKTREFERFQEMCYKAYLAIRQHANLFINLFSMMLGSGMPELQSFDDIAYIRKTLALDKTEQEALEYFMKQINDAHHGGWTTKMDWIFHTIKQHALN
Sequence of Mast/stem cell growth factor receptor Kit (Homo sapiens), P10721 [V559D,T670I] (P10721 whole entry V559D/T670I): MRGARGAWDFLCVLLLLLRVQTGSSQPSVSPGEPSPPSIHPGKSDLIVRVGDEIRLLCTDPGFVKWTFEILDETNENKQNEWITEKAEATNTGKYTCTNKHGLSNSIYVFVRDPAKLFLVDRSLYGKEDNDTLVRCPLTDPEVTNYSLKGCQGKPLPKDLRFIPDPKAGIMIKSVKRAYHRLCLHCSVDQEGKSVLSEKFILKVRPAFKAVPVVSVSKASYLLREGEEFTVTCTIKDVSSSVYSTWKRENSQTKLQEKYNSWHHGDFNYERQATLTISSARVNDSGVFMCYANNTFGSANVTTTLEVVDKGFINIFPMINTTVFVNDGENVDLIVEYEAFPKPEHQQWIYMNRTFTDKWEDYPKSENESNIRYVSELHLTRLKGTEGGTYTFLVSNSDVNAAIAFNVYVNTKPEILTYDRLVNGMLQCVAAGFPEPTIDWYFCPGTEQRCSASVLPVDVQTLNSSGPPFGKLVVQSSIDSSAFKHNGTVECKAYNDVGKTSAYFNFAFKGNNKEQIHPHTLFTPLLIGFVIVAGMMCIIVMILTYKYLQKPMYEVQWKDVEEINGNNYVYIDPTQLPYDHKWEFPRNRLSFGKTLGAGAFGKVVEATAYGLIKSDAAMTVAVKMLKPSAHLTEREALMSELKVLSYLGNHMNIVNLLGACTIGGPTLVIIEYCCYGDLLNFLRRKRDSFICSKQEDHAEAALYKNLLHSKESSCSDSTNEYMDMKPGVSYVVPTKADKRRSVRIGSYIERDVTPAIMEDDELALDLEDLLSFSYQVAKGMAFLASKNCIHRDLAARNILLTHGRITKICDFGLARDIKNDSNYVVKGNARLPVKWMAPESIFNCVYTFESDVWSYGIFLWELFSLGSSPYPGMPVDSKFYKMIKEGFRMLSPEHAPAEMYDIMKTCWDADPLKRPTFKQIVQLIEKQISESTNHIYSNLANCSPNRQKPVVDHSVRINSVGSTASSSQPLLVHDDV
Sequence of TGF-beta receptor type-2 (Homo sapiens) (P37173 whole entry): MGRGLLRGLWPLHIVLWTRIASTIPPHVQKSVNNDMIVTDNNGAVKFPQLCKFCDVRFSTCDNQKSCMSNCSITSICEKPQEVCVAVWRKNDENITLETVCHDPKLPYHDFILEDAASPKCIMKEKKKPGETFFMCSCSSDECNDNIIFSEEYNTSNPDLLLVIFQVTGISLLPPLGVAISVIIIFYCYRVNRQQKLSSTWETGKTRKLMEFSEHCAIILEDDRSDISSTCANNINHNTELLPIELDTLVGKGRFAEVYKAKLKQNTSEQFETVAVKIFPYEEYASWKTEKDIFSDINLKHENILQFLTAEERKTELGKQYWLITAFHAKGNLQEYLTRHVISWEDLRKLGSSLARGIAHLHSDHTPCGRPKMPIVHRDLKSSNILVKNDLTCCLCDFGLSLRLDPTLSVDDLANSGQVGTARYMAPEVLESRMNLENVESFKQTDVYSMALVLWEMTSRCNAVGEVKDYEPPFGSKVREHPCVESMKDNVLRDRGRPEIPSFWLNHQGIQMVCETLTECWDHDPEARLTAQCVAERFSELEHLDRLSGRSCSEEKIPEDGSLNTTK
Sequence of Phosphatidylinositol 4,5-bisphosphate 3-kinase catalytic subunit alpha isoform (Homo sapiens), P42336 [Q546K] (P42336 whole entry Q546K, canonical isoform): as the sequence (P42336 whole entry M1043I, canonical isoform) above, with Q546K, I1043M counted along it

SMILES: Cc1c(NC(=O)c2cc(C(N)=O)nc3cc(F)ccc23)c(C(F)(F)F)nn1Cc1ccc(C#N)cc1 [BAY-876]
- residual activity [1]: 75%
- residual activity [2]: 81%
- residual activity [3]: 81%
- residual activity [4]: 78%
- residual activity [5]: 80%
- residual activity [6]: 97%
- residual activity [7]: 96%
- residual activity [8]: 77%
- residual activity [9]: 89%
- residual activity [10]: 91%
- residual activity [11]: 72%
- residual activity [12]: 100%
- residual activity [13]: 100%
- residual activity [14]: 88%
- residual activity [15]: 99%
- residual activity [16]: 93%
- residual activity [17]: 83%
- residual activity [18]: 100%
- residual activity [19]: 100%
- residual activity [20]: 84%
- residual activity [21]: 92%
- residual activity [22]: 89%
- residual activity [23]: 58%
- residual activity [24]: 72%
- residual activity [25]: 98%
- residual activity [26]: 79%
- residual activity [27]: 84%
- residual activity [28]: 65%
- residual activity [29]: 84%
- residual activity [30]: 89%
- residual activity [31]: 97%
- residual activity [32]: 92%
- residual activity [33]: 100%
- residual activity [34]: 73%
- residual activity [35]: 91%
- residual activity [36]: 85%
- residual activity [37]: 100%
- residual activity [38]: 100%
- residual activity [39]: 99%
- residual activity [40]: 100%
- residual activity [41]: 100%
- residual activity [42]: 100%
- residual activity [43]: 77%
- inhibition [44]: -7.03%
- inhibition [45]: 1.46%

SMILES: Cc1c(NC(=O)c2cc(C(N)=O)nc3cc(F)ccc23)c(C(F)(F)F)nn1Cc1ccc(C(C)(C)C)cc1 [BAY-588]
- residual activity [1]: 100%
- residual activity [2]: 98%
- residual activity [3]: 100%
- residual activity [4]: 100%
- residual activity [5]: 80%
- residual activity [6]: 100%
- residual activity [7]: 100%
- residual activity [8]: 72%
- residual activity [9]: 100%
- residual activity [10]: 88%
- residual activity [11]: 94%
- residual activity [12]: 91%
- residual activity [13]: 100%
- residual activity [14]: 79%
- residual activity [15]: 100%
- residual activity [16]: 100%
- residual activity [17]: 100%
- residual activity [18]: 56%
- residual activity [19]: 88%
- residual activity [20]: 100%
- residual activity [21]: 95%
- residual activity [22]: 100%
- residual activity [23]: 98%
- residual activity [24]: 84%
- residual activity [25]: 100%
- residual activity [26]: 88%
- residual activity [27]: 100%
- residual activity [28]: 100%
- residual activity [29]: 76%
- residual activity [30]: 90%
- residual activity [31]: 100%
- residual activity [32]: 100%
- residual activity [33]: 100%
- residual activity [34]: 100%
- residual activity [35]: 80%
- residual activity [36]: 32%
- residual activity [37]: 100%
- residual activity [38]: 100%
- residual activity [39]: 100%
- residual activity [40]: 100%
- residual activity [41]: 100%
- residual activity [42]: 81%
- residual activity [43]: 97%
- inhibition [44]: 7.59%
- inhibition [45]: 11.9%
